# Experimental data taken from ChEMBL document CHEMBL3885881, “DrugMatrix”.
# Species: Rattus norvegicus
# Test: DrugMatrix - Regimen: Daily Repeat
# Type: toxicity, organism-based, Sprague-Dawley
# Set-up: regimen Daily Repeat, gender Male, age 6-8 weeks
# Settings: in vivo, po, route oral GAVAGE, […]; for ABSOLUTE BASOPHIL / ABSOLUTE EOSINOPHIL / ABSOLUTE LYMPHOCYTE / ABSOLUTE MONOCYTE / ABSOLUTE SEGMENTED NEUTROPHIL / BASOPHIL / EOSINOPHIL / ERYTHROCYTE COUNT / HEMATOCRIT / HEMOGLOBIN / LEUKOCYTE COUNT / LYMPHOCYTE / MEAN CORPUSCULAR HEMOGLOBIN / MEAN CORPUSCULAR HEMOGLOBIN CONCENTRATION / MEAN CORPUSCULAR VOLUME / MONOCYTE / NEUTROPHIL / NUCLEATED RED BLOOD CELLS / PLATELET COUNT: tissue Blood; for ALANINE AMINOTRANSFERASE / ALBUMIN / ALKALINE PHOSPHATASE / ASPARTATE AMINOTRANSFERASE / BLOOD UREA NITROGEN / CARBON DIOXIDE / CHLORIDE / CHOLESTEROL / CREATINE PHOSPHOKINASE / CREATININE / GLUCOSE / LACTATE DEHYDROGENASE / LIPASE / PHOSPHORUS / POTASSIUM / SODIUM / TOTAL BILIRUBIN / TOTAL PROTEIN / URIC ACID: tissue Plasma
# [1] = 0 mg/kg, 72 h, dose level Control, time 3 day
# [2] = 0 mg/kg, 120 h, dose level Control, time 5 day
# [3] = 0.6 mg/kg, 72 h, dose level Low, time 3 day
compound,measurement,setting,value
O=C(O)CCCc1ccc(N(CCCl)CCCl)cc1 [CHLORAMBUCIL],ABSOLUTE BASOPHIL,[1],0 CELLS/uL
same,ABSOLUTE EOSINOPHIL,[1],104.17 CELLS/uL
same,ABSOLUTE LYMPHOCYTE,[1],14547 CELLS/uL
same,ABSOLUTE MONOCYTE,[1],292 CELLS/uL
same,ABSOLUTE SEGMENTED NEUTROPHIL,[1],1640.17 CELLS/uL
same,BASOPHIL,[1],0%
same,EOSINOPHIL,[1],0.67%
same,ERYTHROCYTE COUNT,[1],5.35 x10E6/uL
same,HEMATOCRIT,[1],33.67%
same,HEMOGLOBIN,[1],13.38 G/DL
same,LEUKOCYTE COUNT,[1],16.58 x10E3/uL
same,LYMPHOCYTE,[1],87.5%
same,MEAN CORPUSCULAR HEMOGLOBIN,[1],25.05 pg
same,MEAN CORPUSCULAR HEMOGLOBIN CONCENTRATION,[1],39.78 G/DL
same,MEAN CORPUSCULAR VOLUME,[1],62.97 fL
same,MONOCYTE,[1],1.83%
same,NEUTROPHIL,[1],10%
same,NUCLEATED RED BLOOD CELLS,[1],0 /100WBC
same,PLATELET COUNT,[1],1274.5 x10E3/uL
same,ALANINE AMINOTRANSFERASE,[1],76.83 u/L
same,ALBUMIN,[1],3.97 G/DL
same,ALKALINE PHOSPHATASE,[1],347 u/L
same,ASPARTATE AMINOTRANSFERASE,[1],97.17 u/L
same,BLOOD UREA NITROGEN,[1],14.33 mg/dL
same,CARBON DIOXIDE,[1],25.5 mmol/L
same,CHLORIDE,[1],100.33 MEQ/L
same,CHOLESTEROL,[1],68.67 mg/dL
same,CREATINE PHOSPHOKINASE,[1],659.17 u/L
same,CREATININE,[1],0.32 mg/dL
same,GLUCOSE,[1],160.67 mg/dL
same,LACTATE DEHYDROGENASE,[1],271.5 u/L
same,LIPASE,[1],11.67 u/L
same,PHOSPHORUS,[1],10.65 mg/dL
same,POTASSIUM,[1],5.95 MEQ/L
same,SODIUM,[1],139.65 MEQ/L
same,TOTAL BILIRUBIN,[1],0.2 mg/dL
same,TOTAL PROTEIN,[1],5.72 G/DL
same,URIC ACID,[1],1.37 mg/dL
same,ABSOLUTE BASOPHIL,[2],0 CELLS/uL
same,ABSOLUTE EOSINOPHIL,[2],331.5 CELLS/uL
same,ABSOLUTE LYMPHOCYTE,[2],15021.67 CELLS/uL
same,ABSOLUTE MONOCYTE,[2],376.5 CELLS/uL
same,ABSOLUTE SEGMENTED NEUTROPHIL,[2],3070.33 CELLS/uL
same,BASOPHIL,[2],0%
same,EOSINOPHIL,[2],1.83%
same,ERYTHROCYTE COUNT,[2],5.24 x10E6/uL
same,HEMATOCRIT,[2],33.22%
same,HEMOGLOBIN,[2],13.2 G/DL
same,LEUKOCYTE COUNT,[2],18.8 x10E3/uL
same,LYMPHOCYTE,[2],79.67%
same,MEAN CORPUSCULAR HEMOGLOBIN,[2],25.17 pg
same,MEAN CORPUSCULAR HEMOGLOBIN CONCENTRATION,[2],39.73 G/DL
same,MEAN CORPUSCULAR VOLUME,[2],63.38 fL
same,MONOCYTE,[2],2%
same,NEUTROPHIL,[2],16.5%
same,NUCLEATED RED BLOOD CELLS,[2],0 /100WBC
same,PLATELET COUNT,[2],1142.67 x10E3/uL
same,ALANINE AMINOTRANSFERASE,[2],52.5 u/L
same,ALBUMIN,[2],3.9 G/DL
same,ALKALINE PHOSPHATASE,[2],284.5 u/L
same,ASPARTATE AMINOTRANSFERASE,[2],81.33 u/L
same,BLOOD UREA NITROGEN,[2],16 mg/dL
same,CARBON DIOXIDE,[2],25.33 mmol/L
same,CHLORIDE,[2],99.5 MEQ/L
same,CHOLESTEROL,[2],74.83 mg/dL
same,CREATINE PHOSPHOKINASE,[2],448.33 u/L
same,CREATININE,[2],0.37 mg/dL
same,GLUCOSE,[2],164.17 mg/dL
same,LACTATE DEHYDROGENASE,[2],290.67 u/L
same,LIPASE,[2],6.83 u/L
same,PHOSPHORUS,[2],11.5 mg/dL
same,POTASSIUM,[2],6.28 MEQ/L
same,SODIUM,[2],139.5 MEQ/L
same,TOTAL BILIRUBIN,[2],0.13 mg/dL
same,TOTAL PROTEIN,[2],5.55 G/DL
same,URIC ACID,[2],1.12 mg/dL
same,ABSOLUTE BASOPHIL,[3],0 CELLS/uL
same,ABSOLUTE EOSINOPHIL,[3],134 CELLS/uL
same,ABSOLUTE LYMPHOCYTE,[3],11100 CELLS/uL
same,ABSOLUTE MONOCYTE,[3],438.67 CELLS/uL
same,ABSOLUTE SEGMENTED NEUTROPHIL,[3],1260.67 CELLS/uL
same,BASOPHIL,[3],0%
same,EOSINOPHIL,[3],1%
same,ERYTHROCYTE COUNT,[3],5.4 x10E6/uL
same,HEMATOCRIT,[3],34.47%
same,HEMOGLOBIN,[3],13.6 G/DL
same,LEUKOCYTE COUNT,[3],12.93 x10E3/uL
same,LYMPHOCYTE,[3],86%
same,MEAN CORPUSCULAR HEMOGLOBIN,[3],25.2 pg
same,MEAN CORPUSCULAR HEMOGLOBIN CONCENTRATION,[3],39.43 G/DL
same,MEAN CORPUSCULAR VOLUME,[3],63.87 fL
same,MONOCYTE,[3],3.33%
same,NEUTROPHIL,[3],9.67%
same,NUCLEATED RED BLOOD CELLS,[3],0 /100WBC
same,PLATELET COUNT,[3],1307.67 x10E3/uL
same,ALANINE AMINOTRANSFERASE,[3],68 u/L
same,ALBUMIN,[3],3.93 G/DL
same,ALKALINE PHOSPHATASE,[3],423 u/L
same,ASPARTATE AMINOTRANSFERASE,[3],81.33 u/L
same,BLOOD UREA NITROGEN,[3],13.33 mg/dL
same,CARBON DIOXIDE,[3],25.33 mmol/L
same,CHLORIDE,[3],101 MEQ/L
same,CHOLESTEROL,[3],71 mg/dL
same,CREATINE PHOSPHOKINASE,[3],316.67 u/L
same,CREATININE,[3],0.26 mg/dL
same,GLUCOSE,[3],153.33 mg/dL
same,LACTATE DEHYDROGENASE,[3],99.67 u/L
same,LIPASE,[3],13 u/L
same,PHOSPHORUS,[3],11.17 mg/dL
same,POTASSIUM,[3],5.8 MEQ/L
same,SODIUM,[3],140.37 MEQ/L
same,TOTAL BILIRUBIN,[3],0.17 mg/dL
same,TOTAL PROTEIN,[3],5.67 G/DL
same,URIC ACID,[3],1.1 mg/dL
